“And” between values parts separate entries of the source, which are not always exact repeats. Equal values may be shown once. The source made the active and inactive calls.
What was measured:
[1] = molecular target: Cytochrome P450 2C9 (Homo sapiens, UniProt P11712)
[2] = molecular target: Cytochrome P450 2D6 (Homo sapiens, UniProt P10635);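 note: CYP2D6 member of a cytochrome P450 panel assay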
[3] = HEp-2 cell cytotoxicity, dose response, cytotoxicity control for RSV inhibitor project, HTS (AID 2410); format: functional; settings: human respiratory syncytial virus
[4] = molecular target: T1, Corticotropin-releasing factor receptor 2/Corticotropin-releasing factor-binding protein (Homo sapiens, UniProt P24387+Q13324); experiment: activators of CRF receptor 2 with binding protein – uHTS hits, confirmation (AID 602473); format: functional; settings: read-out: EC50_Mean
T1 sequence (Q13324 whole entry): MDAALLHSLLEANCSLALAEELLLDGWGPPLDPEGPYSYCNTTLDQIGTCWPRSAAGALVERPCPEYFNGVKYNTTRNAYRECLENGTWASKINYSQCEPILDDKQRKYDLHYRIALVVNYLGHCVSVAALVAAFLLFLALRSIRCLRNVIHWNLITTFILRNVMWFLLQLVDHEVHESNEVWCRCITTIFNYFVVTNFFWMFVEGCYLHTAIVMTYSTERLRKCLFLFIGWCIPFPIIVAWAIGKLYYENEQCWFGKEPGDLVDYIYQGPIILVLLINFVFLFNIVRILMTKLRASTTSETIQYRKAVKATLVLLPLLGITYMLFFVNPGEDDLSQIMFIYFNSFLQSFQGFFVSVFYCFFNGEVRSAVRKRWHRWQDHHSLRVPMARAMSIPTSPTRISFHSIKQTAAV
T1 sequence (P24387 whole entry): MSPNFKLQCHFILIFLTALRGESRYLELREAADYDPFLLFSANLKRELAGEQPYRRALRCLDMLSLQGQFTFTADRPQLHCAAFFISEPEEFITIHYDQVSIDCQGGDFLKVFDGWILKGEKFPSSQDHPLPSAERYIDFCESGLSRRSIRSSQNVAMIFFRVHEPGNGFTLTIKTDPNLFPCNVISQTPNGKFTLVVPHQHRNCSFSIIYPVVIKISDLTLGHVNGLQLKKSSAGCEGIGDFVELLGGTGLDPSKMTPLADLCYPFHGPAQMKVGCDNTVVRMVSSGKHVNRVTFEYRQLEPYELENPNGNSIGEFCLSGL

[5] = molecular target: T1, Corticotropin-releasing factor receptor 2/Corticotropin-releasing factor-binding protein; experiment: Dose Response confirmation of uHTS hits for small molecule antagonists of the CRF-binding protein and CRF-R2 receptor complex.; format: functional; settings: read-out: IC50_Mean
[6] = molecular target: T2, Cytochrome P450 1A2 (Homo sapiens, UniProt P05177);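 note: PubChem cytochrome P450 panel assay, CYP1A2 panel member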
T2 sequence (P05177 whole entry): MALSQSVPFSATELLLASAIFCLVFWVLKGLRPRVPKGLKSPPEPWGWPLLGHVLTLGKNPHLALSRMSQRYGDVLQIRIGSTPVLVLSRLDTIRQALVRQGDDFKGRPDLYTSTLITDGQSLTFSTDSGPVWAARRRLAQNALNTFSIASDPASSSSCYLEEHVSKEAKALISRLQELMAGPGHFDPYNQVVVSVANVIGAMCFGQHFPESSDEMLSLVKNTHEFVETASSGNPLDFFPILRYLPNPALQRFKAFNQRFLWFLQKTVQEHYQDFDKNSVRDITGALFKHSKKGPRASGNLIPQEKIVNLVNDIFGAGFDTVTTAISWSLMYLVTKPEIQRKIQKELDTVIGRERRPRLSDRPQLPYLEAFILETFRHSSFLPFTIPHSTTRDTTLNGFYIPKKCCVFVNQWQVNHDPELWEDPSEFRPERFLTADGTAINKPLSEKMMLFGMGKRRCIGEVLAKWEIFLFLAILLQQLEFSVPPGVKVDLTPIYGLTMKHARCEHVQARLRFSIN

[7] = system: INS1; experiment: beta cell apoptosis inhibitors, cytokine rescue, dose response, luminescence, retest (AID 449756); format: functional, cell-based; settings: Rattus norvegicus;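 note: cell death triggered by IL-1 beta plus TNF-alpha plus IFN-gamma mixture; protective hits raise ATP signal compared with cytokine alone wells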
[8] = molecular target: Cytochrome P450 2C19 (Homo sapiens, UniProt P33261); experiment: Cytochrome panel assay with activity outcomes. Panel member name: p450-cyp2c19 Compounds with AC50 equal or less than 10 uM are considered active; format: functional
Cytochrome P450 2C19, sequence (P33261 whole entry): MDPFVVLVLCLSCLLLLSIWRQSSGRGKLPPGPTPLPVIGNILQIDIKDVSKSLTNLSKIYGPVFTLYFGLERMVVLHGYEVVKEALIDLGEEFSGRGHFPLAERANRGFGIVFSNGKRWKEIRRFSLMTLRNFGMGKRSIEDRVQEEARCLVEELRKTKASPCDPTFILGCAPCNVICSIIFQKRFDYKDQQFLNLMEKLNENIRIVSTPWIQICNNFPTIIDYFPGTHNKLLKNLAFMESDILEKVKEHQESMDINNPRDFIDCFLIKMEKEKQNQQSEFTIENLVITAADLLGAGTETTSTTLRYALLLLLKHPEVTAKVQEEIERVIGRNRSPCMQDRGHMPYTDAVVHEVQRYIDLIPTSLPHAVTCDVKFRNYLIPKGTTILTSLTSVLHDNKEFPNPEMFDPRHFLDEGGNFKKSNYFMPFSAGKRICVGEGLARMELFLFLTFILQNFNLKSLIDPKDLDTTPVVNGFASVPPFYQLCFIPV

[9] = molecular target: Cytochrome P450 3A4 (Homo sapiens, UniProt P08684);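 note: CYP3A4 tested as one member of a cytochrome P450 panel screen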
Cytochrome P450 3A4, sequence (P08684 whole entry): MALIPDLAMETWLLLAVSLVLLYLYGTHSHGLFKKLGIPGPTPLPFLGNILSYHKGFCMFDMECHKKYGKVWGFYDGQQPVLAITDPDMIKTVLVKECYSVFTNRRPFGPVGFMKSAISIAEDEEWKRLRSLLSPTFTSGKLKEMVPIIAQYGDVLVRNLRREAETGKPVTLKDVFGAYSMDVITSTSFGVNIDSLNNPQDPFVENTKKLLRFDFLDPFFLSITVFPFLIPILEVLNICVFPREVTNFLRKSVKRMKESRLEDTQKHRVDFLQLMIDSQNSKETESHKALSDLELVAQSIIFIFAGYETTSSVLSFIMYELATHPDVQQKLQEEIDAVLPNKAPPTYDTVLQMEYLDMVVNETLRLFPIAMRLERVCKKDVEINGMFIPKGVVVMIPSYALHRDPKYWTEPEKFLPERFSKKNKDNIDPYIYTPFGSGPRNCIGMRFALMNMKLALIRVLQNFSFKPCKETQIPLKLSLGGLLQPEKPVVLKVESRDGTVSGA

[10] = inhibitors of intracellular T. cruzi replication, confirmation, NIH3T3 host cells, beta-gal luminescence (AID 2044); format: functional, cell-based;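 note: intracellular parasites grown in NIH/3T3 mouse fibroblasts as host cells; luminescent beta-galactosidase reporter signal from transgenic T. cruzi replicating inside host cells; inhibitors lower the luminescence signal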
[11] = cytotoxicity toward NIH3T3 fibroblasts, dose response, counter-screen, cell-based, ATP luminescence, mouse fibroblasts (AID 2010); format: functional;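 note: cells exposed to compound for about 90 hours before reading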
[12] = growth suppression of PTEN-null colon cells, dose response, cell-based, HCT116 PTEN knockout (AID 1047); format: functional;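 note: HCT116 colon tumor cells with PTEN knocked out; cells exposed to compound for 60 hours before readout; potency for loss of cell viability measured by luminescence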
[13] = inhibitors of SNCA 5'UTR-driven reporter translation, confirmation, H4 neuroglioma cells, luminescence (AID 1988); format: functional, cell-based
[14] = Luminescence Cell-Based Dose Response HTS to Identify Inhibitors of 5'UTR Stem-Loop Driven Prion Protein mRNA Translation in H4 Neuroglioblastoma Cells. [Related pubchem assays: 1827 (Project Summary), 1813 (Primary HTS)]; format: functional
[15] = inhibitors of firefly luciferase expression or activity, dose response, H4 neuroglioma cells, luminescence (AID 1990); format: functional, cell-based

Cytochrome P450 2D6, sequence (P10635 whole entry): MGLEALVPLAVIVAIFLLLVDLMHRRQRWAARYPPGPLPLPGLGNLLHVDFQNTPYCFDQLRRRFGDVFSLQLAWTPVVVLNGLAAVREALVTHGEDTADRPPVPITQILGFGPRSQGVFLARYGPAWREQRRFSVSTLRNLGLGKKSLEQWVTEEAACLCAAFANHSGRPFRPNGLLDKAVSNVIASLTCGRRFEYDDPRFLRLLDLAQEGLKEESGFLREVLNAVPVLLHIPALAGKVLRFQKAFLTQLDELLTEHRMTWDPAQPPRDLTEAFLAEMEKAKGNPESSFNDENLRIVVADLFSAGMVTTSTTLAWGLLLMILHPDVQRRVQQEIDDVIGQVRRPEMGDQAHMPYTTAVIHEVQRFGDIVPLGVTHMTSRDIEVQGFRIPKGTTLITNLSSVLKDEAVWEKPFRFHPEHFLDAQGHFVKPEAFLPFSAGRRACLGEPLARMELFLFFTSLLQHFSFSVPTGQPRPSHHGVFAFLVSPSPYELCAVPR
Cytochrome P450 2C9, sequence (P11712 whole entry): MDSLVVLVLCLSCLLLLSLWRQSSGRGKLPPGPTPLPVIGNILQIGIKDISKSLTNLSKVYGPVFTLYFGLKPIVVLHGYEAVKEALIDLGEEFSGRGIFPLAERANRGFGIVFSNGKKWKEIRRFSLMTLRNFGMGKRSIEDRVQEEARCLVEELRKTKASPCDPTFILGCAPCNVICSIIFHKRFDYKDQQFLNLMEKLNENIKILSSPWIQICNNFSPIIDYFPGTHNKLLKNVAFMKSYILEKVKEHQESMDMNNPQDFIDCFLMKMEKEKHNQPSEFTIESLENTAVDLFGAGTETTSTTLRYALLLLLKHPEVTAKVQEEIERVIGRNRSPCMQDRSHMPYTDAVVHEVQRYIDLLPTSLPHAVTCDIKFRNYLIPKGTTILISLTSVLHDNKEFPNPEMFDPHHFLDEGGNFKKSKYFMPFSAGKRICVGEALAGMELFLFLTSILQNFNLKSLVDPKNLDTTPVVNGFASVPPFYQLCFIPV

Cc1cc(C)c(/C=C2/C(=O)Nc3ccccc32)[nH]1
AC50 [1]: 2.51 µM (inconclusive)
AC50 [2]: 0.398 µM (inconclusive)

O=C(NCc1nnc(SCC(=O)N2CCCc3ccccc32)n1-c1ccccc1)c1cccc2ccccc12
CC50 [3]: > 50 µM (active)

CCN(C(=O)CSc1cc(C)c2ccc(OC)cc2n1)C1CCS(=O)(=O)C1 (configuration not stated)
EC50 [4]: > 53 µM (inactive)
IC50 [5]: > 47.1 µM (inactive)

Cc1onc(-c2ccccc2Cl)c1C(=O)Nc1cccc2cccnc12
CC50 [3]: 3.16 µM (active)

COCCn1c(=O)c(-c2cc(F)cc(F)c2)nc2cnc(N(C)C)nc21
AC50 [6]: 5.01 µM (inconclusive)

CS(=O)(=O)Nc1cccc(-c2nc(N3CCNCC3)c3ccccc3n2)c1
AC50 [6]: 20 µM (inconclusive)

c1ccc(Nc2ncnc3ccc(-c4ccoc4)cc23)cc1
AC50 [2]: 20 µM (inconclusive)

Cn1cc(-c2nc3cncnc3n(Cc3ccc(F)cc3)c2=O)c2ccccc21
AC50 [6]: 1.26 µM (inconclusive)

NCOC(=O)Cc1ccc(Br)cc1
AC50 [6]: 0.2 µM (active)

O=C(C1CCC1)N1CCc2cc(S(=O)(=O)Nc3ccc4c(c3)OCCO4)ccc21
AC50 [7]: 5.88 µM (active)

O=C(c1ccco1)N1CCN(c2ncnc3c2cnn3-c2ccccc2)CC1
CC50 [3]: 38.5 µM (active)

Cn1c(CC(=O)Nc2ccc(Cl)c(Cl)c2)nnc1SCC(=O)N1CCN(c2ccccc2)CC1
AC50 [2]: 25.1 µM (inconclusive)
AC50 [6]: 15.8 µM (inconclusive)

COc1ccc2[nH]cc(CCNc3ncncc3-c3c(C)noc3C)c2c1
AC50 [1]: 1.26 µM (inconclusive)
AC50 [2]: 20 µM (inconclusive)

CC(=O)OC[C@H]1O[C@@H](O/N=C2/[C@H]3O[C@@H]3[C@@H](O)[C@H]3[C@H]2CCn2c(=O)n(-c4ccccc4)c(=O)n23)[C@H](OC(C)=O)[C@@H](OC(C)=O)[C@@H]1OC(C)=O
AC50 [8]: inconclusive
AC50 [2]: 3.16 µM (inconclusive)

O=C1C(c2ccccn2)=[N+]([O-])c2ccccc21
AC50 [6]: 0.158 µM (active)

C/C(=C\c1ccccc1)CN1CCC(C(=O)N2CCCCC2)CC1
EC50 [4]: > 53 µM (inactive)
IC50 [5]: > 47.1 µM (inactive)

c1ccc(-c2ccc(N3CC4(CCNCC4)C3)cc2)cc1
AC50 [2]: 25.1 µM (inconclusive)
AC50 [9]: 25.1 µM (inconclusive)

CC12CCC(C(=O)Nc3cccc4ccccc34)(C1Br)C2(C)C (configuration not stated)
AC50 [1]: 2.51 µM (inconclusive)
AC50 [2]: 20 µM (inconclusive)

N#Cc1cnn2c(-c3cccc(C(F)(F)F)c3)ccnc12
CC50 [3]: 47 µM (active)

O=c1c2c3c(sc2n(CCN2CCCCC2)c(=O)n1Cc1ccco1)CCCCC3
EC50 [10]: 2.76 µM (active)
AC50 [7]: 17.9 µM (active)
EC50 [11]: > 30 µM (not active)

O=c1c2ccccc2nc2n1C(CBr)CN2 (configuration not stated)
EC50 [4]: > 53 µM (inactive)
IC50 [5]: > 47.1 µM (inactive)

COc1ccccc1NC(=O)CCc1c(C)nc(O)c(C#N)c1C
AC50 [8]: inconclusive
AC50 [9]: 17.8 µM (inconclusive)
AC50 [6]: 0.00631 µM (inconclusive)

CCC/C=C(\CCC)C(NS(=O)(=O)c1ccccc1)c1ccc(C(F)(F)F)cc1 (configuration not stated)
AC50 [6]: 12.6 µM (inconclusive)

Cc1ccc(C(=O)Nc2nnc(-c3ccco3)o2)cc1C
EC50 [4]: > 53 µM (inactive)
IC50 [5]: > 47.1 µM (inactive)

CCOC(=O)c1c(C)n(C)c2ccc(OC)c(NS(=O)(=O)c3ccc(Cl)s3)c12
AC50 [1]: 3.16 µM (inconclusive)
AC50 [9]: 1.58 µM (inconclusive)
AC50 [6]: 5.62 µM (inconclusive)

Clc1ccccc1OCCCCN1CCCC1
AC50 ([8]; read-out: AC50): 28.2 µM (inconclusive)
AC50 [6]: 15.8 µM (inconclusive)

O=C(/C=C/c1ccco1)OCc1nnc(-c2ccc(Cl)cc2)o1
EC50 [4]: > 53 µM (inactive)
IC50 [5]: > 47.1 µM (inactive)

CCOc1ccc(-c2c(=O)n(OCc3ccccn3)c3ccccc3[n+]2[O-])cc1
AC50 [1]: 5.62 µM (inconclusive)
AC50 ([8]; read-out: AC50): 15.8 µM (inconclusive)
AC50 [9]: 12.6 µM (inconclusive)
AC50 [6]: 12.6 µM (inconclusive)

COc1cccc(Cn2c(=O)c(C)nc3cnc(Nc4ccccc4)nc32)c1
AC50 [2]: 1 µM (inconclusive)

COc1cccc(Nc2ncc3nc(-c4cccs4)c(=O)n(-c4ccccc4)c3n2)c1
AC50 [9]: 20 µM (inconclusive)
AC50 [6]: 3.16 µM (inconclusive)

COc1ccc(-n2c(=O)c(CCc3ccccc3)nc3cnc(OC)nc32)cc1
AC50 [1]: 7.94 µM (inconclusive)
AC50 [2]: 20 µM (inconclusive)

O=C1c2ccccc2NC(c2ccc(F)cc2)N1Cc1ccco1 (configuration not stated)
AC50 [2]: 0.398 µM (inconclusive)
AC50 [9]: 14.1 µM (inconclusive)

CC(C)OC(=O)/C(=C\c1ccc2c(c1)c1ccccc1n2C)NC(=O)c1ccccc1
AC50 [1]: 6.31 µM (inconclusive)
AC50 ([8]; read-out: AC50): 2.51 µM (inconclusive)
AC50 [6]: 2.24 µM (inconclusive)

COc1ccc(CCNC(=O)c2c(N)n(CCN3CCOCC3)c3nc4ccccc4nc23)cc1OC
EC50 [12]: 94.9 µM (active)
EC50 [13]: > 120 µM (not active)
EC50 [14]: 13.3 µM (active)
EC50 [15]: > 120 µM (not active)

Cc1cccc(/C=C2\CCC(=C3SCCCS3)C2=O)c1
EC50 [13]: 8.14 µM (active)
EC50 [14]: 9.28 µM (active)
EC50 [15]: 5.22 µM (active)

O=C(Nc1cccc(F)c1)N1CC[C@@]2(CCCN(C(=O)Oc3ccccc3)C2)C1
AC50 [2]: 20 µM (inconclusive)
AC50 [9]: 5.01 µM (inconclusive)
AC50 [6]: 15.8 µM (inconclusive)

CSc1cccc(NC(=O)C(C)C)c1
EC50 [4]: > 53 µM (inactive)
IC50 [5]: > 47.1 µM (inactive)

CCOc1ccc(C2C(C(=O)c3ccc4c(c3)OCCO4)=C(O)C(=O)N2CCCN2CCOCC2)cc1 (configuration not stated)
EC50 [4]: > 53 µM (inactive)
IC50 [5]: > 47.1 µM (inactive)

CC#CCCC(=O)N1C=Cc2ccccc2C1C#N (configuration not stated)
EC50 [4]: > 53 µM (inactive)
IC50 [5]: > 47.1 µM (inactive)

CSc1nnnn1-c1ccc(Cl)cc1
CC50 [3]: 30.7 µM (active)

O=C(Nc1ccncc1)Nc1cccc(C(F)(F)F)c1
CC50 [3]: > 50 µM (active)

CC(=O)Nc1ccc(S(=O)(=O)NC(CC(=O)NCCC2=CCCCC2)C(C)C)cc1 (configuration not stated)
AC50 [1]: 8.91 µM (inconclusive)
AC50 [2]: 0.708 µM (inconclusive)

c1ccc2sc(N3CCN(Cc4ccc5c(c4)OCO5)CC3)nc2c1
AC50 [1]: 7.94 µM (inconclusive)
AC50 [2]: 39.8 µM (inconclusive)

CCCN[C@@H]1CCc2c(OC)cccc2[C@@H]1C
AC50 [6]: 31.6 µM (inconclusive)

Cc1nc2ccccc2c(=O)n1/N=C/c1c(O)ccc2ccccc12
AC50 [7]: 6.35 µM (active)

COc1ccc(/C(O)=C(\C#N)c2nc3ccccc3n2C)cc1OC
AC50 [1]: 0.251 µM (inconclusive)
AC50 ([8]; read-out: AC50): 39.8 µM (inconclusive)
AC50 [2]: 1.58 µM (inconclusive)
AC50 [9]: 3.55 µM (inconclusive)

COc1ccccc1CNc1ncncc1-c1cccc(NS(C)(=O)=O)c1
AC50 [2]: 12.6 µM (inconclusive)

CN(CCc1ccc(Cl)c(Cl)c1)C[C@@H](O)COc1ccc(NS(C)(=O)=O)cc1
AC50 [9]: 15.8 µM (inconclusive)
AC50 [6]: 15.8 µM (inconclusive)

CN1CCN(C2=Nc3ccccc3Oc3ccc(Cl)cc32)CC1 [LOXAPINE SUCCINATE]
AC50 [2]: 10 µM (inconclusive) and 31.6 µM (inconclusive)
AC50 [6]: 31.6 µM (inconclusive) and 3.16 µM (inconclusive)

From ChEMBL document CHEMBL1201862, “PubChem BioAssay data set” (2004)
